This note sets out measurements from patent US8288396B2, “Pyrimidopyrimidoindazole derivative” (MSDKK, priority 2009, dated 2012).

The target in one assay is T1, Wee1 kinase (Homo sapiens, UniProt P30291).
T1 construct: made in house; host or cells: Sf9 insect cells (recombinant baculovirus)
Kind of assay: Wee1 kinase inhibitory effect (Pharmacological Test 1). The class given is biochemical. To be noted: GST-tagged Wee1 kinase, Poly(Lys, Tyr) substrate, 10 μM ATP, 30° C. for 30 minutes. The source says: Pharmacological Test 1 (Wee1 Kinase Inhibitory Effect)
(1) Purification of Wee1 Kinase
A cDNA of Wee1 kinase with […] (GST) fused at the amino terminal thereof was inserted into a baculovirus expression vector to construct a recombinant baculovirus, with which cells of an insect cell line Sf9 were infected to overexpress the target protein. The infected cells were collected and lysed, and then the GST-tagged Wee1 kinase protein was adsorbed to a glutathione column and eluted from the column with glutathione, and the active fraction was desalted in a desalting column to give a purified enzyme.
(2) Measurement of Wee1 Kinase Activity
In measurement of the Wee1 kinase activity, a synthetic peptide, Poly(Lys, Tyr) hydrobromide (Lys:Tyr (4:1)) purchased from Sigma was used as the substrate.
The amount of the reaction mixture was 21.1 μL; and the composition of the reaction buffer was 50 mM Tris-HCl buffer (pH 7.4)/10 mM magnesium chloride/1 mM dithiothreitol. The purified Wee1 kinase, 2.5 μg of the substrate peptide, 10 μM of non-labeled adenosine triphosphate (ATP) and 1 μCi of [γ-^33P]-labeled ATP (2500 Ci/mmol or more) were added to the reaction buffer, and the resulting mixture was incubated at 30° C. for 30 minutes. Thereafter, 10 μL of 350 mM phosphate buffer was added to the reaction system to stop the reaction. The substrate peptide was adsorbed on a P81 paper filter 96-well plate and the plate was washed several times with 130 mM phosphate buffer, and the radioactivity thereof was counted using a liquid scintillation counter. The [γ-^33P]-labeled ATP was purchased from Amersham Bioscience, Ltd.
The addition of a test compound to the reaction system was carried out by preparing a series of dilutions of the compound with dimethyl sulfoxide (DMSO) and adding 1.1 μL of each dilution to the reaction system. As a control, 1.1 μL of DMSO was added to the reaction system.

Assay [1] deals with Cdc2 (Cdk1) tyrosine-15 phosphorylation. Kind of assay: Inhibitory effect on Cdc2 (Cdk1) tyrosine-15 phosphorylation in NCI-H1299 cells (Pharmacological Test 2). The class given is cell-based. To be noted: Homo sapiens, camptothecin 200 nM 16 hours, then test compound with nocodazole 8 hours, ELISA, read-out: Cdc2-Y15 Phosphorylation-Inhibitory Effect (H1299, +camptothecin) (EC50). The source says:
Pharmacological Test 2 (Method for Determining Drug Effect Using Cells (Inhibitory Effect on Cdc2 (Cdk1) Tyrosine-15 Phosphorylation))
Fetal bovine serum (FBS) was purchased from Morgate, Inc.; an RPMI-1640 medium and a DMEM medium were purchased from Invitrogen, Inc.; camptothecin was purchased from Sigma Co.; gemcitabine was purchased from Eli Lilly Japan K.K.; nocodazole and protease inhibitor cocktail were purchased from Sigma Co.; a rabbit anti-Cdc2 antibody and a mouse anti-Cdc2 antibody were purchased from Santa Cruz Biotechnology, Inc.; a rabbit anti-tyrosine-15-phosphorylated Cdc2 antibody and a horseradish peroxidase-labeled anti-mouse IgG antibody were purchased from Cell Signaling Technology, Inc.; and Sure Blue Reserve TMB peroxidase substrate was purchased from Kirkegaard & Perry Laboratories, Inc.
A human non-small cell lung cancer cell line (NCI-H1299) and a human colon cancer cell line (WiDr) can be obtained from American Type Culture Collection (ATCC).
In the method using NCI-H1299 cells, the cells were suspended in an RPMI-1640 medium supplemented with 10% FBS, and 100 μL of the resulting cell suspension was dispensed in a Nunclon Delta treated 96-well plastic plate purchased from Nunc, Inc. at a density of 2000 cells per well, and the plate was incubated overnight at 37° C. under an atmosphere of 5% CO2 and 95% air. Camptothecin was dissolved in dimethyl sulfoxide (DMSO) and further the resulting solution was diluted with an RPMI-1640 medium supplemented with 10% FBS. Then, 50 μL of the diluted solution was added to each well of the plate in which the cells were seeded in advance such that the final concentration of camptothecin was 200 nM, and the plate was incubated at 37° C. under an atmosphere of 5% CO2 and 95% air for 16 hours. A test compound was serially diluted with DMSO, and further diluted with an RPMI-1640 medium supplemented with 10% FBS containing 4000 nM nocodazole. Then, 50 μL of the test compound solution was added to each well of the plate in which the cells treated with camptothecin were seeded, and the plate was incubated at 37° C. under an atmosphere of 5% CO2 and 95% air for 8 hours. Then, the culture medium was removed from each well and 100 μL of a cell lysis buffer was added to each well, and the plate was shaken at 4° C. for 2 hours, and thereafter the liquid in the plate was frozen at −80° C. and then thawed, which was used as a lysed cell solution. Cdc2 and tyrosine-15-phosphorylated Cdc2 in this lysed cell solution were measured by an enzyme-linked immunosorbent assay (ELISA method), and a ratio of tyrosine-15-phosphorylated Cdc2 to Cdc2 was calculated to determine a 50% effective concentration (EC50, nM) of the test compound for inhibition of phosphorylation in cells. The cell lysis buffer as used herein is an aqueous solution containing 20 mM HEPES (pH 7.5), 150 mM sodium chloride, 1 mM disodium ethylenediamine tetraacetate, 0.1% polyoxyethylene (10) octylphenyl ether, 1% protease inhibitor cocktail, 1 mM dithiothreitol, 2 mM sodium orthovanadate, 10 mM sodium fluoride and 10 mM glycerol diphosphate. The measurement of Cdc2 by the ELISA method was carried out as follows. 50 μL of a solution of a rabbit anti-Cdc2 antibody obtained by diluting the antibody to 200 times with 50 mM carbonate-bicarbonate buffer (pH 9.6) was dispensed into each well of a 96-well Maxisorb immunoplate purchased from Nunc, Inc., and the immunoplate was let stand overnight at 4° C. to immobilize the antibody thereto. Subsequently, each well was washed three times with phosphate buffered saline (PBS), and 300 μL of PBS containing 5% bovine serum albumin (5% BSA/PBS) was added to each well, and then, the immunoplate was let stand at room temperature for 2 hours. […]
(ELISA stands for enzyme-linked immunosorbent assay.)

The structures appear in SMILES notation. Where a name gives a salt, the structure may show the parent alone.

A word on the IC50: it is the point on the concentration scale where inhibition reaches its midpoint. A low value points to greater potency in that assay. As a reminder, the EC50 is the midpoint of the concentration-response curve.

T1 sequence (P30291 whole entry): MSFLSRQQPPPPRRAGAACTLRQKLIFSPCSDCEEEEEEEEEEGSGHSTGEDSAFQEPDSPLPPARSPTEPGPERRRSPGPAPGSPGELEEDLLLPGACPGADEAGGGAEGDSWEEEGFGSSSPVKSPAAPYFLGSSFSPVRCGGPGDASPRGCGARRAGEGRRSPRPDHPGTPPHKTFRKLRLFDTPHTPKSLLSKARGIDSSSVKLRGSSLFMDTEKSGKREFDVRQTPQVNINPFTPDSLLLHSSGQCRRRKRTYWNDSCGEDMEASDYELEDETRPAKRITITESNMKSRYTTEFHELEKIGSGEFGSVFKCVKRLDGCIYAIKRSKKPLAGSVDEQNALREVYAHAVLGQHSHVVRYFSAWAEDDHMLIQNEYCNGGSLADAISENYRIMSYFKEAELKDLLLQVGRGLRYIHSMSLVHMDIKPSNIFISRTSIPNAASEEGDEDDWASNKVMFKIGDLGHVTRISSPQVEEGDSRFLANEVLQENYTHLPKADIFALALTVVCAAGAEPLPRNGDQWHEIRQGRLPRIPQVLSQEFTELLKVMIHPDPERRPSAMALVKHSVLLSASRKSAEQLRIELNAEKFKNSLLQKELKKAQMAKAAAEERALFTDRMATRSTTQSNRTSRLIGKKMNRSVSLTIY

Consider `Cc1cc(Nc2ncc3c(=O)n4c(nc3n2)c2ccccc2n4-c2ccccn2)ccc1N1CCN(C)CC1` [Example 21, 2-{[3-methyl-4-(4-methylpiperazin-1-yl)phenyl]amino}-7-(pyridin-2-yl)pyrimido[4′,5′:4,5]pyrimido[1,2-b]indazol-5(7H)-one], for which the midpoint of inhibition on Wee1 kinase, the IC50, lay at 32 nM. In assay [1], the EC50 came to 111 nM.
For the compound `CN1CCN(c2ccc(Nc3ncc4c(=O)n5c(nc4n3)c3ccccc3n5-c3ccccn3)cc2)CC1` [Example 23, 2-{[4-(4-methylpiperazin-1-yl)phenyl]amino}-7-(pyridin-2-yl)pyrimido[4′,5′:4,5]pyrimido[1,2-b]indazol-5(7H)-one], at Wee1 kinase, 30 nM corresponded to half-maximal inhibition (IC50).
In turn, `CN1CCc2cc(Nc3ncc4c(=O)n5c(nc4n3)c3ccccc3n5-c3ccccn3)ccc2C1` [Example 43, 2-[(2-methyl-1,2,3,4-tetrahydroisoquinolin-6-yl)amino]-7-(pyridin-2-yl)pyrimido[4′,5′:4,5]pyrimido[1,2-b]indazol-5(7H)-one] showed an IC50 on Wee1 kinase of 4.9 nM. For the same compound, the concentration for a half-maximal effect (EC50) in assay [1] worked out at 31 nM.
The compound `CN1CCc2ccc(Nc3ncc4c(=O)n5c(nc4n3)c3ccccc3n5-c3ccccn3)cc2C1` [Example 44, 2-[(2-methyl-1,2,3,4-tetrahydroisoquinolin-7-yl)amino]-7-(pyridin-2-yl)pyrimido[4′,5′:4,5]pyrimido[1,2-b]indazol-5(7H)-one] gave an IC50 at Wee1 kinase of 3.9 nM. Also, in assay [1], the concentration for a half-maximal effect (EC50) came to 38 nM.
Consider `Cc1cc(Nc2ncc3c(=O)n4c(nc3n2)c2ccccc2n4-c2ccsc2)ccc1N1CCN(C)CC1` [Example 55, 2-{[3-methyl-4-(4-methylpiperazin-1-yl)phenyl]amino}-7-(3-thienyl)pyrimido[4′,5′:4,5]pyrimido[1,2-b]indazol-5(7H)-one], for which, on Wee1 kinase, 13 nM corresponded to half-maximal inhibition (IC50).
Turning to `Cc1cc(Nc2ncc3c(=O)n4c(nc3n2)c2ccccc2n4-c2ncccn2)ccc1N1CCN(C)CC1` [Example 61, 2-{[3-methyl-4-(4-methylpiperazin-1-yl)phenyl]amino}-7-(pyrimidin-2-yl)pyrimido[4′,5′:4,5]pyrimido[1,2-b]indazol-5(7H)-one], at Wee1 kinase, the IC50 worked out at 12 nM. For the same compound, in assay [1], the concentration for a half-maximal effect (EC50) was 130 nM.
As for `CN1CCN(c2ccc(Nc3ncc4c(=O)n5c(nc4n3)c3ccccc3n5-c3ncccn3)cc2)CC1` [Example 62, 2-{[4-(4-methylpiperazin-1-yl)phenyl]amino}-7-(pyrimidin-2-yl)pyrimido[4′,5′:4,5]pyrimido[1,2-b]indazol-5(7H)-one], 38 nM corresponded to half-maximal inhibition against Wee1 kinase (IC50).
For `CN(C)[C@H]1CCN(c2ccc(Nc3ncc4c(=O)n5c(nc4n3)c3ccccc3n5-c3ncccn3)cc2)C1` [Example 79, 2-({4-[(3S)-3-(dimethylamino)pyrolidin-1-yl]phenyl}amino)-7-(pyrimidin-2-yl)pyrimido[4′,5′:4,5]pyrimido[1,2-b]indazol-5(7H)-one], half-maximal inhibition at Wee1 kinase (IC50) required 24 nM. Further, the 50% effective concentration (EC50) in assay [1] came to 370 nM.
In turn, `CN1CCC(C)(c2ccc(Nc3ncc4c(=O)n5c(nc4n3)c3ccccc3n5-c3ncccn3)cc2)CC1` [Example 88, 2-{[4-(1,4-dimethylpiperidin-4-yl)phenyl]amino}-7-(pyrimidin-2-yl)pyrimido[4′,5′:4,5]pyrimido[1,2-b]indazol-5(7H)-one] had an IC50 against Wee1 kinase of 26 nM.
As to `Cc1cc(Nc2ncc3c(=O)n4c(nc3n2)c2ccccc2n4-c2ncccn2)ccc1OCCN(C)C` [Example 90, 2-({4-[2-(dimethylamino)ethoxy]-3-methylphenyl}amino)-7-(pyrimidin-2-yl)pyrimido[4′,5′:4,5]pyrimido[1,2-b]indazol-5(7H)-one], on Wee1 kinase, the 50% inhibitory concentration (IC50) was determined as 30 nM. The concentration for a half-maximal effect (EC50) in assay [1] came to 250 nM.
`CN(C)Cc1ccc(Nc2ncc3c(=O)n4c(nc3n2)c2ccccc2n4-c2ncccn2)cc1` [Example 91, 2-({-4-[(dimethylamino)methyl]phenyl}amino)-7-(pyrimidin-2-yl)pyrimido[4′,5′:4,5]pyrimido[1,2-b]indazol-5(7H)-one] yielded a concentration for half-maximal inhibition (IC50) against Wee1 kinase of 34 nM.
The same measure, in the same setting: to `CN(C)CCc1ccc(Nc2ncc3c(=O)n4c(nc3n2)c2ccccc2n4-c2ncccn2)cc1` [Example 92, 2-({4-[2-(dimethylamino)ethyl]phenyl}amino)-7-(pyrimidin-2-yl)pyrimido[4′,5′:4,5]pyrimido[1,2-b]indazol-5(7H)-one] belongs 46 nM.
Take `CN1CCc2cc(Nc3ncc4c(=O)n5c(nc4n3)c3ccccc3n5-c3ncccn3)ccc2C1` [Example 100, 2-[(2-methyl-1,2,3,4-tetrahydroisoquinolin-6-yl)amino]-7-(pyrimidin-2-yl)pyrimido[4′,5′:4,5]pyrimido[1,2-b]indazol-5(7H)-one]: at Wee1 kinase, the IC50 was determined as 5.1 nM. In addition, in assay [1], the EC50 was 52 nM.
`CN1CCc2ccc(Nc3ncc4c(=O)n5c(nc4n3)c3ccccc3n5-c3ncccn3)cc2C1` [Example 101, 2-[(2-methyl-1,2,3,4-tetrahydroisoquinolin-7-yl)amino]-7-(pyrimidin-2-yl)pyrimido[4′,5′:4,5]pyrimido[1,2-b]indazol-5(7H)-one] displayed a concentration for half-maximal inhibition (IC50) at Wee1 kinase of 3.8 nM. The EC50 in assay [1] was found to be 43 nM.
Take `CN1Cc2ccc(Nc3ncc4c(=O)n5c(nc4n3)c3ccccc3n5-c3ncccn3)cc2C1` [Example 102, 2-[(2-methyl-2,3-dihydro-1H-isoindol-5-yl)amino]-7-(pyrimidin-2-yl)pyrimido[4′,5′:4,5]pyrimido[1,2-b]indazol-5(7H)-one]: the IC50 against Wee1 kinase is 19 nM.
At Wee1 kinase, `CN(C)CCCOc1ccc(Nc2ncc3c(=O)n4c(nc3n2)c2ccccc2n4-c2nccs2)cc1` [Example 121, 2-({4-[3-(dimethylamino)propoxy]phenyl}amino)-7-(1,3-thiazol-2-yl)pyrimido[4′,5′:4,5]pyrimido[1,2-b]indazol-5(7H)-one] had an IC50 of 23 nM.
Same read-out and setting: with `CN1CCN(c2ccc(Nc3ncc4c(=O)n5c(nc4n3)c3ccccc3n5-c3cscn3)cc2)CC1` [Example 146, 2-{[4-(4-methylpiperazin-1-yl)phenyl]amino}-7-(1,3-thiazol-4-yl)pyrimido[4′,5′:4,5]pyrimido[1,2-b]indazol-5(7H)-one] the figure was 13 nM; with `CN1CCN(c2ccc(Nc3ncc4c(=O)n5c(nc4n3)c3ccc(O)cc3n5-c3ccccn3)cc2)CC1` [Example 150, 9-hydroxy-2-{[4-(4-methylpiperazin-1-yl)phenyl]amino}-7-(pyridin-2-yl)pyrimido[4′,5′:4,5]pyrimido[1,2-b]indazol-5(7H)-one trifluoroacetate], 8.6 nM.
